Consider 2 compounds from ChEMBL document CHEMBL1131389, “Unusual synthesis of new glycine antagonists via sequential aldol condensation-lactonization-elimination reaction” (Bioorg Med Chem Lett, 1998).

As a reminder, the pKi is the negative decadic logarithm of the Ki, by convention in mol/L.

The test has as its target Glutamate receptor ionotropic, NMDA 1 (Rattus norvegicus) (UniProt P35439). Briefly: In vitro affinity of compound for the glycinergic site associated with NMDA receptor was assessed by inhibition of the binding of [3H]glycine.

Compound `O=C(O)c1[nH]c2cc(Cl)cc(Cl)c2c1/C=C1\CCCN(c2ccccc2)C1=O` had a pKi of 7.3.

`O=C(O)c1[nH]c2cc(Cl)cc(Cl)c2c1/C=C1\CCN(c2ccccc2)C1=O`: the pKi was found to be 7.5.
